Here are results for four compounds from ChEMBL document CHEMBL1201862, “PubChem BioAssay data set” (2004).

Calls of active or inactive are those of the source.

Test [1] deals with Streptococcus sp. 'group A'. Kind of test: growth inhibition of control SK(-) GAS strain, dose response, counter-screen for streptokinase expression inhibitor project, luminescence, kanamycin, BacTiterGlo, confirmation (AID 1900). Type of test: functional, organism-based.
Another test deals with T1, Streptokinase A (Streptococcus pyogenes serotype M1, UniProt P10520).
T1 sequence (P10520 whole entry): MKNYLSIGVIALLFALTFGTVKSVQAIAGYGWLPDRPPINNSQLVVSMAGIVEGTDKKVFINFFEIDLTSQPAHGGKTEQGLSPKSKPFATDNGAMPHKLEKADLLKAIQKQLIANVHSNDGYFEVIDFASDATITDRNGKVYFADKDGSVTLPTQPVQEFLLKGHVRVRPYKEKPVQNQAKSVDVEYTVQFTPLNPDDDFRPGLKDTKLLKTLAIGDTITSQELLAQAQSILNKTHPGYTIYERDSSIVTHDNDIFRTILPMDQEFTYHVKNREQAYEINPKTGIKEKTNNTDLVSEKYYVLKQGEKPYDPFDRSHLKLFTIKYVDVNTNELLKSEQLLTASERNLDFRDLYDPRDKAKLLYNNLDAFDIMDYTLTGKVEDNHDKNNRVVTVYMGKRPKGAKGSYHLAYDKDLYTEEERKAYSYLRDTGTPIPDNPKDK
Kind of test: S. pyogenes streptokinase expression inhibitors, potency, dose response, plasminogen activation absorbance, OD405 (AID 1914).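 Also: secreted streptokinase activity via plasminogen activation per viability signal from cell pellet.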 In kind it is functional, Streptococcus pyogenes M1 GAS.

The nature of test [2]: cytotoxicity toward NIH3T3 fibroblasts, dose response, counter-screen, cell-based, ATP luminescence, mouse fibroblasts (AID 2010).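 Also: cells exposed to compound for about 90 hours before reading.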 Type of test: functional. (A counterscreen serves to expose hits that act by an unwanted route or on another target.)
A further test relates to INS1. Kind of test: beta cell apoptosis inhibitors, cytokine rescue, dose response, luminescence, retest (AID 449756).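 Also: cell death triggered by IL-1 beta plus TNF-alpha plus IFN-gamma mixture; protective hits raise ATP signal compared with cytokine alone wells.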 In kind it is functional, cell-based. To be noted: Rattus norvegicus.
Test [3] can be described thus: Counterscreen for AddAB inhibitors: absorbance-based bacterial cell-based high throughput dose response assay for inhibitors of bacterial viability. [Related pubchem assays (depositor defined):AID435030, AID449728, AID449731, AID488942, AID488955, AID488956]. In kind it is functional.
Test [4] can be described thus: THP-1 cell cytotoxicity, dose response, cytotoxicity control for Vif-APOBEC3G degradation inhibitor project, THP-1 cells (AID 1117359). Type of test: functional. To be noted: Human immunodeficiency virus 1, THP-1.
Test [5] in a line: Luminescence Cell-Based Dose Response HTS to Identify Inhibitors of 5'UTR Stem-Loop Driven Prion Protein mRNA Translation in H4 Neuroglioblastoma Cells. [Related pubchem assays: 1827 (Project Summary), 1813 (Primary HTS)]. In kind it is functional.
Test [6] addresses T2, DNA repair and recombination protein RAD54-like (Homo sapiens, UniProt Q92698).
T2 sequence (Q92698 whole entry): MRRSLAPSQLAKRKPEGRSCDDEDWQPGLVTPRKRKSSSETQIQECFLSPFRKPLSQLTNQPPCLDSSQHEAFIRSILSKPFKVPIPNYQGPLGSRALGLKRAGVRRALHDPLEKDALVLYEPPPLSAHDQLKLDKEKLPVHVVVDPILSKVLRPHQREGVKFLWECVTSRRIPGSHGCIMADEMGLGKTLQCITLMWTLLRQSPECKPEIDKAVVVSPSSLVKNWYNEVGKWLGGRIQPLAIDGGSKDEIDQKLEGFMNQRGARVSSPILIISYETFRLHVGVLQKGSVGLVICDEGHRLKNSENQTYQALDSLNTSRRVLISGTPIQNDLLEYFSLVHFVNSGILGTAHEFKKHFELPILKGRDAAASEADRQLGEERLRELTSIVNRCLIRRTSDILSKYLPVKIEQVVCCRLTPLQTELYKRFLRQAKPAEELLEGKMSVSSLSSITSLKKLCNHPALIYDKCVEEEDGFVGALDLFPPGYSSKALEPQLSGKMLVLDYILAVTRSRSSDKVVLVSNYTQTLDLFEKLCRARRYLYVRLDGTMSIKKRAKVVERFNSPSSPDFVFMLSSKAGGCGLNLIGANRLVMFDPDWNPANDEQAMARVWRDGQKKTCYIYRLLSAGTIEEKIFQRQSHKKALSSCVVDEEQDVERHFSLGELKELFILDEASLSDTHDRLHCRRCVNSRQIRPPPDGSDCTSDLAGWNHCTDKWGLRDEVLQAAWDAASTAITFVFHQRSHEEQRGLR
Kind of test: inhibitors of human RAD54 branch migration, confirmation, biochemical, fluorescence, cherry-picked samples, dose series (AID 651657). Type of test: functional.

Another test relates to Cryptococcus neoformans. Briefly: Cryptococcus growth inhibition by alamar blue – cell lysis, cherry-picks, replicate tests, mechanism study for C. neoformans antifungal project, dose response (AID 686999). In kind it is functional, organism-based. On the technique in general: The colour change of resazurin is a common sign of viable cells or microbes.
Another test addresses T3, Aminopeptidase N (Plasmodium falciparum FcB1/Columbia, UniProt O96935).
T3 sequence (O96935 whole entry): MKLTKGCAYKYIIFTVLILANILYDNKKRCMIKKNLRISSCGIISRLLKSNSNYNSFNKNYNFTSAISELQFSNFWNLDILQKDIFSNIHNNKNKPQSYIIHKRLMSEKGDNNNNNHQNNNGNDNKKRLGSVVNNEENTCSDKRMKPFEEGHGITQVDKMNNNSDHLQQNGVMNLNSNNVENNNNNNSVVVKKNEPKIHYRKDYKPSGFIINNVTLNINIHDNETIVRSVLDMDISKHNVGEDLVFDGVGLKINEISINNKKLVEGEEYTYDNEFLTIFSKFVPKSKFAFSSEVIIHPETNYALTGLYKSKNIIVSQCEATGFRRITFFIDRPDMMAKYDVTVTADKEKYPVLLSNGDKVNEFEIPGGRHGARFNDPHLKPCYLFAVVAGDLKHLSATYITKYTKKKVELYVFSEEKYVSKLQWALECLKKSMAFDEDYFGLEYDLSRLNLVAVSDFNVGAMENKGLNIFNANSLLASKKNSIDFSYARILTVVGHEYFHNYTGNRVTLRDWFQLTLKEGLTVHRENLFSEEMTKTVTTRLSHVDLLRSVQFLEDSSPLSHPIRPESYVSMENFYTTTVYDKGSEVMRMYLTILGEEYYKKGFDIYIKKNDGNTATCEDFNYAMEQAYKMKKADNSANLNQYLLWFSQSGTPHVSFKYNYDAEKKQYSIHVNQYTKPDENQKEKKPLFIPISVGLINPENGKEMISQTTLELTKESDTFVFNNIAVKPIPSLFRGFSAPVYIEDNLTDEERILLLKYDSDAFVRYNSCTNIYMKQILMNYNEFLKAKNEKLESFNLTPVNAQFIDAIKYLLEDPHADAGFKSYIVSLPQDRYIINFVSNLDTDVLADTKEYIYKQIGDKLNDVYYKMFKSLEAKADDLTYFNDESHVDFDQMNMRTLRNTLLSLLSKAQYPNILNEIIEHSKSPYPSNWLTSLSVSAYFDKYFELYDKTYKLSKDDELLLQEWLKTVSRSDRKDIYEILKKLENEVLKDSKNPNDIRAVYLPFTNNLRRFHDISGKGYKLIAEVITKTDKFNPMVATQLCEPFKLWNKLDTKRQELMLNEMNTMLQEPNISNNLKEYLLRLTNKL
Briefly: P. falciparum M1AAP inhibitors, biochemical, fluorogenic H-Leu-NHMec substrate, 1536-well (AID 1445). Details: species or system Plasmodium falciparum 3D7, 3D7.

Test [7] deals with Peroxisome proliferator-activated receptor gamma/Nuclear receptor corepressor 2 (Homo sapiens, UniProt P37231+Q9Y618). Type of test: functional.
Chain of Peroxisome proliferator-activated receptor gamma/Nuclear receptor corepressor 2 (P37231 whole entry): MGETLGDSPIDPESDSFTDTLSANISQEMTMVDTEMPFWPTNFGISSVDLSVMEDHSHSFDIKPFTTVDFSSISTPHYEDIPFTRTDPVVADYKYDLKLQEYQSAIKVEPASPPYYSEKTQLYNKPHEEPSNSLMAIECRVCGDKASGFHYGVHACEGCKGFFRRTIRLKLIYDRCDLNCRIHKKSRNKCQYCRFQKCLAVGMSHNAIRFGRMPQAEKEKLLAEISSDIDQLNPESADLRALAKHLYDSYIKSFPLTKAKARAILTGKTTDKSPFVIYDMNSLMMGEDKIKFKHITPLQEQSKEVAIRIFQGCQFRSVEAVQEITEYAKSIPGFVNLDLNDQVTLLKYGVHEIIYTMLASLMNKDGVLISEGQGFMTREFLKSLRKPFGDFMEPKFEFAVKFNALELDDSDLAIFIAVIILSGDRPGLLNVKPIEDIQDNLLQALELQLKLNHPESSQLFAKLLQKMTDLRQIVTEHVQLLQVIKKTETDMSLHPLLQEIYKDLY
Chain of Peroxisome proliferator-activated receptor gamma/Nuclear receptor corepressor 2 (Q9Y618 whole entry): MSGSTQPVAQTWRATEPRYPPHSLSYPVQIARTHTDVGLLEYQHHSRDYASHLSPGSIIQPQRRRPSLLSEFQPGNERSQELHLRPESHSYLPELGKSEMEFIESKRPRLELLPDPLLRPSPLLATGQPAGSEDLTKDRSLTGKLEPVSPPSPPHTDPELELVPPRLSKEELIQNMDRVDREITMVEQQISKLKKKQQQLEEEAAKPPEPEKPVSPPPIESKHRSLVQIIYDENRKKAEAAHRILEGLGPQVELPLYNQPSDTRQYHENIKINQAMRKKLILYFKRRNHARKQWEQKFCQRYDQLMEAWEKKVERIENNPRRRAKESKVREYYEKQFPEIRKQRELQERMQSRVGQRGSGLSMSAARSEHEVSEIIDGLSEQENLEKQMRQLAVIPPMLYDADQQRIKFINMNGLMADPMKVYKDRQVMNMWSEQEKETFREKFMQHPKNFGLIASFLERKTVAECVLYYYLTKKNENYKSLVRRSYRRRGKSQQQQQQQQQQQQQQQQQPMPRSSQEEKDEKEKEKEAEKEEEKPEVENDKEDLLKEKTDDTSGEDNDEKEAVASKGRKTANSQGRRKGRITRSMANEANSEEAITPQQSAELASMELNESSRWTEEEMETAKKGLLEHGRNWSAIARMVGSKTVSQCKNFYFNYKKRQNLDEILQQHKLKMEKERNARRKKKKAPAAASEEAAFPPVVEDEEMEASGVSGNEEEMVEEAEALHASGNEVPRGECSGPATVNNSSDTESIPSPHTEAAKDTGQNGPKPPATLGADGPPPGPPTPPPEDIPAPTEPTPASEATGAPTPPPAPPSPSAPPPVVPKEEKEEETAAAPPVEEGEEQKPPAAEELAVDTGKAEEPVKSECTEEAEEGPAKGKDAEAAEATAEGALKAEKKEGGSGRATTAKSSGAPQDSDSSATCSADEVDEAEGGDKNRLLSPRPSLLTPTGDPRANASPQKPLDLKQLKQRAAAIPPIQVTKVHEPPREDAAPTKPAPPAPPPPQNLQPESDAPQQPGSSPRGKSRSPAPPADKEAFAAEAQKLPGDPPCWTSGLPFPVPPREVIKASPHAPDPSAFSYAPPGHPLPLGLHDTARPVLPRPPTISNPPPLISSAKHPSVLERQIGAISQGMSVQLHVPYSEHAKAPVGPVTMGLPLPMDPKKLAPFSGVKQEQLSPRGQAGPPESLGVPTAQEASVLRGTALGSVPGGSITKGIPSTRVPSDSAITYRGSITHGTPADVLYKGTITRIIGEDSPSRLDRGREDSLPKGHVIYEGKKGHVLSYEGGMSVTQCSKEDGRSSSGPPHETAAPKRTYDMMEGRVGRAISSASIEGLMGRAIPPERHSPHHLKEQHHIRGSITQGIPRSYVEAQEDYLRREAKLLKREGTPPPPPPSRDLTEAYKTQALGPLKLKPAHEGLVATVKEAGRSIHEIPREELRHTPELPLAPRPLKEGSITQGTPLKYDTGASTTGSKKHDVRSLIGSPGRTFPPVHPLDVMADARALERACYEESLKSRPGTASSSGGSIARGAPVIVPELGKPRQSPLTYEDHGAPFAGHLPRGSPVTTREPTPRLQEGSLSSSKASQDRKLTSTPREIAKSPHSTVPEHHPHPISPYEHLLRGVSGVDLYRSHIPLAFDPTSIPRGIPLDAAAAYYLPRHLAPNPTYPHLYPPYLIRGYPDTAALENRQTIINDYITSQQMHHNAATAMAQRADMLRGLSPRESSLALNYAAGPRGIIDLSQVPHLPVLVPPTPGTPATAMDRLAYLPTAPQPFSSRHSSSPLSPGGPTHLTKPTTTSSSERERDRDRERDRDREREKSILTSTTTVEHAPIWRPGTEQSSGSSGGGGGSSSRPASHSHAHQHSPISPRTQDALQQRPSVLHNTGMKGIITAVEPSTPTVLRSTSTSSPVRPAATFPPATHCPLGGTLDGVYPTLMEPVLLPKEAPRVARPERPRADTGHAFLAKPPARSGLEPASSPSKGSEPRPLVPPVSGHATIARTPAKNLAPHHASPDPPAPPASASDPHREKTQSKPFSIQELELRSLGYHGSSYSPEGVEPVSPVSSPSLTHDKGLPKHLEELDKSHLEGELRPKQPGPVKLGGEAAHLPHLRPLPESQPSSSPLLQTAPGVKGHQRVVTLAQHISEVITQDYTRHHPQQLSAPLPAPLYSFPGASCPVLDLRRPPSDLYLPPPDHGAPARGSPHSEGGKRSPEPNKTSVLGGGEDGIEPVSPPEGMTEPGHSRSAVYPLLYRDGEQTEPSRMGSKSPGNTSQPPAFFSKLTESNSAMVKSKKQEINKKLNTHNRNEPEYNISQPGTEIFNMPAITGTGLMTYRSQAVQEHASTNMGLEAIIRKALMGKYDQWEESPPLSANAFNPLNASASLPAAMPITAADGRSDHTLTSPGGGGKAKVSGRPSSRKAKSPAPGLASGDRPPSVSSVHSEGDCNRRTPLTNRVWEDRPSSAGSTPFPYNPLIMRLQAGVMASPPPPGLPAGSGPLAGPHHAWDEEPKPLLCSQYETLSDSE

The term EC50 denotes the concentration that produces a half-maximal response. The term AC50 denotes the midpoint of the concentration-response curve, whichever way the signal moves. For `CCCCCCCCCCOC(=O)Cn1c(COc2ccccc2)[n+](C)c2ccccc21`, the EC50 in [1] is 6.91 µM (active); on Streptokinase A, > 150 µM (not active); in [2], > 60 µM (not active). Besides, the AC50 in the test with INS1 is 3.72 µM (active).

As a reminder, the IC50 is the concentration at which inhibition is half-maximal. For orientation: CC50 means the concentration giving 50% cytotoxicity. For `COc1cc(-c2nnc(SCc3cc(=O)oc4cc(O)c(O)cc34)o2)cc(OC)c1OC`, the IC50 in test [3] is > 119 µM (inactive). Besides, the CC50 in [4] was > 40 µM (active).

As for `CCOC(=O)c1c(-c2ccc(-c3ccccc3)cc2)csc1NC(=O)CNCCN(C)C`, the EC50 in [5] was 13.7 µM (active). Besides, the figures for the AC50 (in [6]; in the test on Cryptococcus neoformans) were 68 µM (active) and 14.7 µM (active), respectively.

For the compound `N#Cc1c(NC(=O)c2ccc(Br)o2)n(-c2ccccc2)c2nc3ccccc3nc12`, the IC50 was 22.9 µM (active) on Aminopeptidase N and 5.08 µM (active) in test [7].
